The text below walks through data of patent US20250093329A1, “SCREENING OF COMPOUNDS” (THE UNIVERSITY OF TULSA, priority 2022, published 2025).

“Also recorded” adds a separate entry of the source.

One assay has as its system BxPC3. Put plainly: ATP levels by CellTiter-Glo, compound alone or with metabolic inhibitor (Table 1). It counts as cell-based. The conditions noted are these: compound 100 uM + 2DG (about 10-20 mM), DMEM + 10% FBS, two hour incubation, DMSO control. An excerpt: The improved method for identifying such compounds measures ATP levels as a function of light emitted by any ATP dependent luciferase or modified luciferases, i.e. luciferase derivatives. The method uses a conventional luminescent assay to determine the number of viable cells in a culture. The improvement provided by the present method results from pre-treating cells used in the assays with a metabolic inhibitor prior to treatment with the compound of interest, or switching the cells to a media formulated to force use of a specific metabolic pathway. Luminescent assays for determining cytotoxicity are well known in the art. […]
Following treatment of the control and test cells with the metabolic inhibitor (or switching to a new media), the method calls for addition of the compound to be screened for anti-cancer properties to the cells. […] Following completion of the selected time period, the ATP level within the cell is determined. ATP levels can be determined by luminescence according to standard measuring procedures, i.e. the luminescence level of the assay from the living cells treated with the two component composition is compared to the luminescence level of the assay from the living cells without the two component composition, i.e., the control experiment. […]

Another assay has as its system each cell line tested. Put plainly: ATP levels by CellTiter-Glo, all cell lines of Table 1 taken together. It counts as cell-based. The conditions noted are these: Table 1 cell lines. An excerpt:
A wide variety of ATP luminescing detection reagents are available commercially. So long as the reagent produces a luminescence in the presence of ATP, the reagent will be suitable for use in the present method. Suitable reagents include but are not limited to any ATP dependent luciferase such as but not limited to firefly luciferase, other modified luciferase based reagents, i.e. luciferase derivatives. According to the rapid method for determining the anti-cancer activity of a compound, a sample of living cells is distributed across a number of testing wells. Typically, 96-well plates are used; however, the number of wells is not critical to the current method. When using a 96-well plate the number of living cells will commonly be about 20,000. […] The sample wells contain a cell growth medium to promote cell health and growth and an additive to prevent bacterial contamination of the wells. One common example of the cell growth medium is DMEM with 10% FBS as described above. One example of the additive to prevent bacterial contamination is a solution of penicillin G and streptomycin referred to commonly as Pen-Strep. The Pen-Strep solution typically contains 5000 units of penicillin G and 5000 micrograms of streptomycin. Thus, the rapid determination of anti-cancer compounds can be carried out using the following method. • The desired number of cells are distributed in a 96-well plate containing 100 μL DMEM plus 10% FBS with optional Pen-Strep. • After 24 hours, cells are treated with the compound of interest or a 5% solution of dimethyl sulfoxide (DMSO) in water as a control. • The time period for exposure to the compound of interest and the DMSO control will vary depending on the luminescing detection reagent. However, when using a commercially available reagent such as resazurin (CellTiter Blue commercially available from Promega) or luciferase or a luciferase derivative (CellTiter Glo commercially available from Promega) the time period can be readily determined with reference to literature from the commercial source. Other luminescing detection agents can also be used with minimal experimentation to determine the desired compound exposure time. • Upon completion of the time period for exposure to the compound of interest or the DMSO, 10 μL of the luminescing detection reagent is added and the cells are lysed by a detergent added along with the luminescing detection reagent. • When the reagent is resazurin, as found in CellTiter-Blue the time period for exposure to the compound of interest and the DMSO will be about 24 hours. • When the reagent is luciferase or a luciferase derivative as found in CellTiter-Glo the time period for exposure to the compound of interest and the DMSO will be about 30 minutes to four hours. • The luminescing detection reagent is added over a period of time. • When using resazurin, the time period for the addition of the 10 μl volume takes place over a period of about one to four hours. • When using luciferase or a luciferase derivative, the time period is about 3 minutes to about 7 minutes, typically about 5 minutes. • During the time period of addition of the luminescing detection reagent the resulting luminescence is measured using conventional methods and devices. […] If the compound of interest deactivates the cell, then the cell produces less or no ATP. As a result, the cells in the well treated with the compound of interest will have a lower luminescence value as compared to the cells in wells treated with DMSO. • The value for the cells treated with the compound of interest is reported as a “percent of control” (POC) value. The determination of POC is calculated by dividing the averaged response from duplicate wells containing the cells as treated with the compound of interest by the average response of duplicate control wells which contain only cells and DMSO (in other words, a blank control experiment). […]

Regarding `O=S(=O)(NCc1c[nH]c2ccccc12)c1ccc(Cl)cc1` [Compound 2, N-[(1H-indol-3-yl)methyl]-4-chlorobenzenesulfonamide], the “percent of control (POC), ATP luminescence” value in the assay with BxPC3 is given as “remarkable value; also recorded: effectiveness”. Further, in the assay with each cell line tested (100 μM compound alone), the “reduction in luminescence (reduced ATP) across the cell lines, compound alone” value was “reduction in luminescence”. Moreover, the “effectiveness across the cell lines, with 2-DG” value in the assay with each cell line tested (100 μM compound with 2-DG) is recorded as “effectiveness against each cell line; also recorded: remarkable effectiveness”.
